Earlier results in patent US20110061649A1, “DEVICE AND METHOD FOR TREATING RESPIRATORY AND OTHER DISEASES” (priority 2007, published 2011).
“Also recorded” adds a separate entry of the source. Read-outs that look alike come from different tables or passages of the source.

How the values were obtained:
[1] = for storage without losing effectiveness / beneficial properties: Weizmann Institute article
[2] = test system: vancomycin-resistant enterococci; details: allicin formulated into creams and soap
[3] = test system: methicillin-resistant staphylococcus aureus; details: allicin formulated into creams and soap

Row | Structure (SMILES) | blocking of cysteine proteinases (cysteine proteinases) | blocking of cysteine proteinases (cysteine proteinases; listed as Allicin) | life span ([1]; room temperature) | storage without losing effectiveness / beneficial properties ([1]; listed as natural compound) | life span ([1]; temperature not stated) | preserved stable ([1]; temperature of 4° Celsius) | killing of vancomycin-resistant enterococci [2] | blocking of alcohol dehydrogenases (alcohol dehydrogenases) | killing of methicillin-resistant staphylococcus aureus [3] | level of allicin to which mammals cells proved to be immune (mammals cells) [Mm] | storage without losing effectiveness / beneficial properties [1]
1 | C=CCS[S+]([O-])CC=C (centres unmarked) [allicin] | blocking | Strongly Inhibits | less than an our; also recorded: about an hour | loses its beneficial properties within hours | few hours | stable for months | killing | blocking | killing | 50 | 
2 | C=CCS[S+]([O-])CC=C (centres unmarked) [pure semi-synthetic allicin, allicin] |  |  |  |  |  |  |  |  |  |  | stored for months without losing its effectiveness
